Entries after “also recorded” stand apart in the source; their conditions may differ. Read-outs that look alike come from different tables or passages of the source.
What was measured:
MCF-7 cells [1] = conditions: cited from earlier work
MCF-7 cells [2] = assay: MTT cytotoxicity assay on MCF-7 cells; assay type: cell-based, human; conditions: for Selectivity Index (SI): SI = IC50 on MCF-10 cells/IC50 on MCF-7 cells; for IC50: Homo sapiens, MCF7, MTT, 48 h incubation, IC50 ± SD, three experiments in triplicate
Procedure: (§1) In this study, we wondered whether semi-synthetic compounds have potential antitumoral properties against BC. Therefore, we were interested in investigating the effect of the compounds on the MCF-7 cell line. Firstly, we studied the effect on cell viability using a colorimetric MTT assay, which was performed to quantify the cytotoxic activity; each compound was evaluated at different concentrations (500−100−20−4−0.8−0.16−0.032−0 µM). Daunorubicin was also used as a positive control for comparison with a reference drug. […] Although the MCF-10 cell line provides a useful selectivity model, it may not fully represent the varying sensitivities of different normal cell types within a multicellular organism. The SI value indicates the ratio of toxicity in mammalian host cells to that in a tumoral cell. The data obtained in response to different concentrations of compounds were used to calculate the IC50 and corresponding SI values, as shown in Table 1.
(§2) The American Type Culture Collection (Rockville, MD, USA) supplied the following experimental cell lines: MCF-7, a human breast cancer cell line, and MCF-10A, a human epithelial breast cell line (ATCC N° CRL-10317). Both cell lines were grown in DMEM-F12 medium containing 10% FCS, 100 U/mL penicillin, 100 μg/mL streptomycin, and 1 mM glutamine. The cells were seeded at a concentration of 100 μL per well at a plating density of 3 × 10^3 cells/well and incubated for 24 h at 37 °C under 5% humidified CO2 to enable attachment. The cells were then treated with varying concentrations of synthesized compounds for […] under the same conditions. The compound stock solution was prepared in DMSO, and the final concentration of DMSO was kept at 0.1%. Control cultures were treated with only 1% ethanol.
(§3) Cells from the MCF-7 and MCF-10 lines were seeded into 96-well plates at a density of 1 × 10^4 per well. After 24 h, the compounds were added at increasing concentrations (500–100–20-4–0.8–0.16–0.032–0 µM), and the cells were incubated at 37 °C in a humidified 5% CO2/95% air mixture for 48 h. Following incubation, the cells were washed twice with PBS, and 100 μL of 0.5 mg/mL MTT solution was added to each well. After 2 h of incubation, the MTT solution was removed, and the formazan crystals were dissolved in 50 μL of DMSO per well. Absorbance was then measured at 570 nm using a microplate ELISA reader. IC50 values, determined from three independent experiments conducted in triplicate, were calculated using SigmaPlot® software (version 11.0). The selectivity index (SI) of each compound in each cell line was determined by calculating the ratio of the IC50 values for MCF-10 and cancer cell lines. Compounds were considered selective if SI values were equal to or greater than 3 [46].

human topoisomerase II = assay: TOP2 DNA relaxation / plasmid linearization assay; assay type: biochemical; conditions: 20 μM
Procedure: The ability to relax DNA conformations is a central function of topoisomerase enzymes. Several studies have associated some proapoptotic compounds with the ability to inhibit topoisomerase enzymes. The ability of the selected compounds to inhibit TOP1 or TOP2 activity was determined. In this experiment, daunorubicin was used as a positive control for TOP1/2 inhibition, as previously reported. […] It is important to note the potential for cardiotoxicity associated with some TOP2 inhibitors, which highlights the relevance of assessing compound 14c’s interaction with TOP2B. […] Future studies should include assays to evaluate the specific activity of 14c against both TOP2A and TOP2B to provide a more comprehensive safety profile, as isoform-selective TOP2 inhibitors may offer a therapeutic advantage by reducing adverse effects.
Topoisomerase II-mediated DNA cleavage was assessed using a plasmid linearization assay adapted from previously described methods. Supercoiled plasmid DNA (200 ng final concentration) was incubated with purified human topoisomerase II (10 U) in the presence or absence of test agents or a positive control. Reactions were carried out in a total volume of 20 μL, composed of 2 μL of 10× topoisomerase II reaction buffer, an appropriate volume of compound or control, and nuclease-free water. ATP (final concentration adjusted from a 20 mM stock) was freshly added to the reaction buffer immediately prior to use. Reactions were initiated by the addition of topoisomerase II and incubated at 37 °C for 30 min. To terminate the reactions, 2 μL of 10% SDS was added directly to the tubes while still in the 37 °C water bath, followed by the addition of 1.5 μL of 250 mM tetrasodium EDTA (pH 8.0) and 2 μL of proteinase K solution (0.8 mg/mL). […]
Figure 7 The effect of sesquiterpene aryl esters on TOP1- and TOP2-induced DNA relaxation was assessed. (A) The TOP1 inhibition assay evaluated the compounds (10c, 11c, 12c, 13c, and 14c) at a concentration of 20 μM in a DNA relaxation assay. […]

MCF-10 cells [3] = system: MCF-10 cells; parameters: method as in PMID 25412045; conditions: reference drug; cited from earlier work
MCF-10 cells [4] = assay: MTT cytotoxicity assay on non-tumoral MCF-10 cells; assay type: cell-based, human; conditions: Homo sapiens, MCF10, 48 h incubation, IC50 ± SD, three experiments in triplicate
Procedure: as §1, §2, §3

MCF-7 cells [5] = assay: Mitochondrial membrane potential (rhodamine 123, flow cytometry); assay type: cell-based, human; conditions: MCF-7, compounds at respective IC50, 24 h
Procedure: To determine whether the toxic effects of selected sesquiterpenes (10c, 11c, 12c, 13c, and 14c) are due to the production of ROS and subsequent apoptosis, the mitochondrial membrane potential was measured. With this aim, a protocol using rhodamine 123 staining and flow cytometry was established to study the effect of the selected compounds [40]. The accumulation of rhodamine 123 in mitochondria is associated with the maintenance of the electrochemical gradient in mitochondria. Daunorubicin was used as a positive control (C+). The results are presented as the percentage of cells with increased mitochondrial membrane permeability.
Rhodamine 123 (Rho123), a positively charged dye that reacts to voltage changes and enters the mitochondria, was utilized to detect modifications in the mitochondrial membrane potential. The cells were exposed to specific compounds (IC50 values for each compound) for 24 h. Control cells that had not been treated were used as negative control, while cells treated with daunorubicin at a concentration of 1 µM served as the positive control. Following this, the cells were incubated with Rho123 (at a concentration of 1 µM) in darkness for an hour at 37 °C. Afterward, the medium was taken out, and the cells were washed with PBS. The cells were then dissociated using trypsin and collected through centrifugation for 10 min at 1500×g. The supernatant was thrown away, and the cell pellets were resuspended in PBS and analyzed using flow cytometry with the FL1 filter. The results are shown as the percentage of Rho123-stained cells.
Figure 5 The effect of the compound’s treatment on mitochondrial membrane potential. […] The data represent the means ± S.D. of at least three experiments with triplicate samples.

[6] = system: caspases-3/7 in MCF-7 cells; assay: Caspase-Glo 3/7 assay; assay type: cell-based, human; conditions: MCF-7, 50 μM, 24 h, versus control
Procedure: Since ROS levels were increased in the MCF-7 cancer cell line in response to the compounds, it is important to determine whether this effect is associated with the onset of apoptotic cell death. […] Cells were treated with the selected compounds at 50 μM for 24 h, incubated in situ with the Caspase-Glo 3/7 marker assay, and then analyzed in a luminometer.
The activity of caspase 3/7 in MCF-7 cells treated with the compounds was determined using a Caspase-Glo-3/7 Assay kit from Promega (UK). This assay is a homogenous and luminescent method that measures the activity of caspase-3 and -7, which are essential for apoptosis. MCF-7 cells (1 × 10^4 cells per well) were seeded in a 96-well plate and incubated overnight. The cells were then treated for 24 h with the compounds (50 µM) and a blank as a control. After treatment, the Caspase-Glo® 3/7 reagent was prepared according to the manufacturer’s instructions. Specifically, 100 μL of the reagent was added to 100 μL of culture medium containing the treated cells in each well, and the mixture was incubated for 1 h at room temperature in the dark. Luminescence was then measured using a luminometer (Berthold Sirius Single Tube Luminometer). The fold change in caspase activity was calculated by expressing the average luminescence of each treatment as a fold change with respect to the average luminescence of the negative control.
Figure 6 The effect of the compounds on caspases-3/7 activity in cells from the human breast cancer cell line MCF-7. Caspases-3/7 activity was determined in MCF-7 cells following treatment with the compounds (50 μM) for 24 h. The data are reported as the ratio of activity in treated cells vs. the control (1% ethanol), which were arbitrarily assigned a unitary value. * p < 0.05 versus control cells (Ctrl). The data are reported as the mean values ± S.D. of three different experiments with samples in triplicate.

MCF-7 cells [7] = assay: Intracellular ROS generation (DCFH2-DA, flow cytometry); assay type: cell-based, human; conditions: MCF-7, compounds at respective IC50, 24 h, versus control
Procedure: An increase in intracellular ROS may be one of the factors that contribute to the cytotoxicity of certain compounds in cancer cell lines. In fact, ROS and mitochondrial damage are often associated with the induction of cell death. […] DCF fluorescence was then measured by flow cytometry. The difference in the percentage of DCF-positive cells between treated and control cells was used to indicate an increase in intracellular ROS, as shown in Figure 4.
Reactive oxygen species (ROS) production was measured using flow cytometry. Cells were treated with compounds (each with respective IC50 values) for 24 h, with untreated cells serving as the negative control and cells treated with 1 µM daunorubicin as the positive control. Following the treatment, intracellular ROS levels were visualized after incubation with 2′,7′-dichlorodihydro-fluorescein diacetate (DCFH2-DA) at a final concentration of 10 μM for the last 30 min of the treatment period. After incubation, the cells were washed with PBS, trypsinized, and centrifuged, and the resulting pellet was resuspended in PBS and immediately examined by flow cytometry.
Figure 4 The effect of the compound’s treatment on intracellular ROS generation. Cells were treated with compounds (respective IC50 values for each compound for 24 h), and intracellular ROS levels were determined in the human cancer cell line MCF-7 by flow cytometry using dichloro-fluorescein diacetate (DCFH2-DA). * p < 0.05 versus control cells (Ctrl). The data represent the means ± S.D. of at least three experiments with triplicate samples.

SMILES	cytotoxicity of the base sesquiterpene system (MCF-7 cells [1]; as previously reported by our group)	Selectivity Index (SI) (MCF-7 cells [2])	inhibition of TOP2-induced DNA relaxation (human topoisomerase II)	IC50 (MCF-10 cells [3])	IC50 (MCF-7 cells [1]; reference drug)	IC50 (MCF-7 cells [2])	IC50 (MCF-10 cells [4])	mitochondrial membrane permeability (MCF-7 cells [5])	caspases-3/7 activity [6]	intracellular ROS levels (DCF fluorescence) (MCF-7 cells [7])
CC1=CC[C@H]2C(C)(C)CCC[C@]2(C)[C@H]1CO [(-)-drimenol]	inactive									
COc1cccc2c1C(=O)c1c(O)c3c(c(O)c1C2=O)C[C@@](O)(C(C)=O)C[C@@H]3O[C@H]1C[C@H](N)[C@H](O)[C@H](C)O1 [Daunorubicin, reference compound]		28	modified the TOP2-induced DNA relaxation pattern	9.32 ± 1.01 µM	330 ± 20 nM					
COc1ccc(C[C@H]2C(C)=CCC3C(C)(C)CCC[C@@]32C)cc1OC (stereo partly drawn) [Compound 11c, (4aS,5S)-5-(3,4-Dimethoxybenzyl)-1,1,4a,6-tetramethyl-1,2,3,4,4a,5,8,8a-octahydronaphthalenene]		6.5				13.5 ± 1.8 µM	87.7 ± 17.8 µM	did not increase	considerably enhanced	significantly increased; also recorded: most effective
COc1ccc(C(=O)[C@H]2C(C)=CCC3C(C)(C)CCC[C@@]32C)cc1OC (stereo partly drawn) [Compound 12c, (3,4-Dimethoxyphenyl)((1S,8aS)-2,5,5,8a-tetramethyl-1,4,4a,5,6,7,8,8a-octahydronaphthalen-1-yl)methanone]		4.3				30.1 ± 6.6 µM	131 ± 29.3 µM	did not increase	considerably enhanced	significantly increased

From paper PMC12111648, “New Dimethoxyaryl-Sesquiterpene Derivatives with Cytotoxic Activity Against MCF-7 Breast Cancer Cells: From Synthesis to Topoisomerase I/II Inhibition and Cell Death Mechanism Studies” (International Journal of Molecular Sciences, 2025)
